From US7772197B2, “1,3,5-triazines for treatment of viral diseases” (1,3,5-Triazines for Treatment of Viral Diseases, priority 2002, dated 2010)
Read-outs that look alike come from different tables or passages of the source.

Key:
HIV-1 LAI = test: Treatment of HIV-1-infected MT-2 cells with nucleoside analogues, p24 ELISA; type: cell-based; details: for EC50: Human immunodeficiency virus 1, MT2, wild-type HIV strain LAI, MT-2 cells
Protocol: The strains of HIV-1 used for primary drug screening are HIV-1 LAI or the appropriate strain of NRTI resistant HIV for studies of cross-resistance. Virus was propagated on MT-2 cells at an multiplicity of infection (MOI) of 0.01 to generate virus stocks. Briefly, the MT-2 cells were suspended in RPMI 1640 media supplemented with 10% fetal bovine serum, streptomycin and penicillin (cRPMI) and grown in a 37° C. incubator containing 5% CO2. Serial dilution of the virus and infection of MT-2 cells were followed by an ELISA detecting the capsid protein of HIV-1 (p24) and used to determine the titer of the virus stocks (50% tissue culture infectious dose (TCID50)). The ELISA was performed according to the manufacturer's instructions. The MT-2 cells are also used for visualizing the cytopathic effects of HIV-1 growth (e.g. syncytia formation).
(§1) 0.1 ml of a 3×10^5 cells/ml MT-2 cell suspension were seeded in 96-well plates at 3×10^4 cells/well. The compounds to be assayed were diluted in a separate 96-well at ten times (10×) the concentration needed for the screen. 22 μl of the 10× compounds was then added to the wells in triplicate except for six control wells, containing uninfected MT-2 cells alone (3 wells) and untreated HIV-infected MT-2 cells (3 wells). This was followed by the addition of HIV-1 at an MOI of 0.01, except for the three wells serving as the uninfected control. 0.1 ml of cRPMI was added to the uninfected well instead of virus. After the addition of virus, the 96-well plate was centrifuged at 1,200×g for two hours to enhance the adsorption of the virus by the MT-2 cells (see, e.g., O'Doherty, J. Virol. 74:10074-10080 (2000)). After the centrifugation step, the 96-well plate was then incubated in a 37° C. incubator containing 5% CO2 for three days. At the end of this time period the virus and cells were mixed by gentle pipetting followed by a 1 minute spin at 600×g to pellet the cells. The supernatant of each well was then serially diluted 1,000-fold into new 96-well plates to serve as inoculum for the next passage and assayed by ELISA for the amount of p24 produced. The next passage was performed as described above, except that the virus used to infect the cells was derived from the 1,000-fold dilution plate. To generate an EC50 value, half-log concentrations of mutagenic nucleoside or nucleotide analogue capable of eradicating virus in a single passage are tested as above to generate a dose-response curve.

[1] = tested on: Measles virus (MV) Nagahata strain; test: Treatment of measles virus-infected CV-1 cells; type: cell-based; details: Measles morbillivirus
Protocol: MV Nagahata strain was used for drug testing. Compared to some laboratory strains, this virus strain replicates lytically in primary human embryonic lung cells and causes extensive cytopathic effect during acute infection. The virus stock was prepared by growing the virus on CV-1 cells at a MOI of 0.01. The titer of the virus stock was determined by plaque formation assay after series dilution.
Virus susceptible cells (CV-1 or BT cells) were seeded in 96-well plates at 2×10^4 cells/well. The virus was inoculated onto the cell monolayers at a MOI of 0.001˜0.002 to keep 30 plaque forming units (pfu) in each well. The inoculum was maintained in 37° C. for about one hour and the supernatant was discarded. Fresh media containing appropriate drug concentration was added in each well. Untreated control was run in parallel. Each drug was tested in triplicate. Three days after infection, cytopathic effect (CPE) was examined in the untreated control wells. […] The plates went through one “freeze-thaw” cycle to release intracellular virus. The virus stock was saved for next round of passage. The virus titer was determined as described above. Virus at a titer of 10^5˜10^6 pfu/ml was produced by this method.

[2] = tested on: bovine viral diarrhea virus (BVDV) Singer strain; test: Treatment of BVDV-infected BT cells; type: cell-based; details: Bovine viral diarrhea virus isolates and strains
Protocol: The BVDV strain used for drug testing was the Singer strain. This virus also causes a cytopathic effect that is measurable and allows estimation of the level of infection. The visible cytopathology can be used as an endpoint for titrating the virus by 50% tissue culture infectious dose (TCID50). The BVDV was propagated in bovine turbinate (BT cells). The virus TCID50 was determined by counting the cytopathic effect at the endpoint dilution. Briefly, confluent BT cells in 96-well plates were infected with the virus at 8 independent serial 10-fold dilutions. All the plates were incubated for five days at 37° C. in 5% CO2. Each well was scored as positive or negative appearance of visible cytopathic effect. The titers were calculated by the method of Reed and Muench, Am. J. Hyg. 27:493-497 (1938), and the mean titer and standard deviation for each of the 3 replicates for each drug concentration and the positive and negative control were calculated.
Virus susceptible cells (CV-1 or BT cells) were seeded in 96-well plates at 2×10^4 cells/well. The virus was inoculated onto the cell monolayers at a MOI of 0.001˜0.002 to keep 30 plaque forming units (pfu) in each well. The inoculum was maintained in 37° C. for about one hour and the supernatant was discarded. Fresh media containing appropriate drug concentration was added in each well. […] The virus titer was determined as described above. […]

[3] = cited from earlier work
HIV-1 RT proviral DNA = test: Frequency of mutations to the viral genome induced by 5-aza-dC (sequencing of proviral clones); type: cell-based; details: 30 μM
Protocol: The viral genomic DNA from cells treated with the deoxyribonucleoside analog 5-aza-dC (30 μM) was purified using a Qiagen DNeasy® Kit. 1 μg of genomic DNA was used to amplify a 1 kb region of the HIV-1 RT proviral DNA by PCR. The PCR product was then cloned into a TOPO® cloning vector. A Millipore Miniprep Kit was used to purify plasmid containing proviral inserts. About 45 positive clones were sequenced in both directions by a Beckman Coulter CEQ 8000. The sequencing results were analyzed and assembled using the DNASTAR Stagman program. Each mutated base was counted and the mutation rate was calculated over the total number of sequenced nucleotides. Sixty-one mutations were found in 26,187 bases sequenced in the 5-aza-dC treated cells. Only one mutation in the drug-free control could be confirmed by sequencing in both directions and thus, the mutation rate in the control may be overestimated. Thus, sequencing of a fragment of the nucleic acid encoding HIV reverse transcriptase has confirmed that 5-aza-dC is mutagenic to the viral genome.

[4] = tested on: HIV-1 RTMDR1, with 74V, 41L, 106A and 215Y mutations; test: Sensitivity of NRTI-resistant HIV strain RTMDR1, MT-2 cells; type: cell-based; details: Human immunodeficiency virus 1, MT2
Protocol: as §1, with “plate.” for “plate. To generate an EC50 value, half-log concentrations of mutagenic nucleoside or nucleotide analogue capable of eradicating virus in a single passage are tested as above to generate a dose-response curve.”
(§2) To determine if there is resistance of HIV NRTI resistant strains to mutagenic nucleoside analogues, NRTI resistant strains were grown in the presence of 5-aza-dC to determine whether the EC50 for 5-aza-dC is different from the WT strain (HIV-1 LAI). […] Growth of HIV NRTI resistant strains in the presence of the appropriate concentration of NRTI was used as a positive control.
Three HIV NRTI resistant strains (HIV-1 LAI-M184V, HIV-1 RTMDR1, with 74V, 41L, 106A and 215Y mutations, and HIV-1 RTMC, with 67N, 70R, 215F and 219Q mutations) were used to test the effectiveness of 5-aza-dC. […]

[5] = tested on: HIV-1 RTMC, with 67N, 70R, 215F and 219Q mutations; test: Sensitivity of NRTI-resistant HIV strain RTMC, MT-2 cells; type: cell-based; details: Human immunodeficiency virus 1, MT2
Protocol: as §1, with “plate.” for “plate. To generate an EC50 value, half-log concentrations of mutagenic nucleoside or nucleotide analogue capable of eradicating virus in a single passage are tested as above to generate a dose-response curve.”
as §2
(§3) Three HIV NRTI resistant strains (HIV-1 LAI-M184V, HIV-1 RTMDR1, with 74V, 41L, 106A and 215Y mutations, and HIV-1 RTMC, with 67N, 70R, 215F and 219Q mutations) were used to test the effectiveness of 5-aza-dC. […] Mutations include: M41L, E44D, A62V, K65R, D67N, T69DN, T69S_SS, K70R, L74V, V75I, F77L, Y115F, F116Y, V118I, Q151M, M184V, L210W, T215F and K219QE.
(§4) The effectiveness of DHAdC was tested against wild-type HIV strains and NRTI resistant HIV strains as described in Example 2. The following strains were tested: HIV-1 LAI, wild-type; HIV-I LAI-M184V-M184V mutation with resistance to lamivudine (3TC); HIV-1 RTMDR1-74V, 41L, 106A and 215Y mutations with resistance to zidovudine, didanosine, nevirapine and other non-nucleoside reverse transcriptase inhibitors; and HIV-1 RTMC-67N, 70R, 215F and 219Q with resistance to zidovudine.

HIV-1 LAI-M184V = test: Sensitivity of NRTI-resistant HIV strain M184V, MT-2 cells; type: cell-based; details: Human immunodeficiency virus 1, MT2
Protocol: as §1, with “plate.” for “plate. To generate an EC50 value, half-log concentrations of mutagenic nucleoside or nucleotide analogue capable of eradicating virus in a single passage are tested as above to generate a dose-response curve.”
as §2, §3, §4

[6] = Cytotoxicity on MT-2 cells (MTT); type: cell-based; details: human
Protocol: For each compound, cytotoxicity was evaluated on MT-2 cells. MT-2 cells were seeded at 3×10^4 cells/well in 96-well plates. […] After 5 days growth in a 37° C. incubator containing 5% CO2, MTT was added to a final concentration of 0.5 mg/ml and then incubated for four hours at 37° C. 10% SDS in 0.02 N HCl was added to lyse the cells overnight at 37° C. The plates were read on a Tecan Genius microplate reader at wavelengths of 570 nm/650 nm. The dose response curve was graphed by comparing the treated cells with the untreated control and the IC50 was determined for each compound.

HIV = HIV infected SCID-Hu mice; type: in vivo; details: 30 mg/kg/day
Protocol: After completion of this toxicology experiment, SN1212 was tested in HIV infected SCID-Hu mice. […] The discordance between viral infectivity and conventional surrogate markers of viral load, such as p24 or HIV RNA, is not surprising, as it has also been observed in vitro, and reflects the increased proportion of non-infectious viral particles in the presence of SN1212. It is also interesting to note that, of the treated groups, the immunologic profile of the SN1212 groups most closely resemble that of the uninfected group. This is compatible with the finding that infection with less “fit” viruses provides a relative clinical benefit by preserving cellular immunity.

CN1CN([C@H]2C[C@H](O)[C@@H](CO)O2)C(=O)N=C1N [MeDHAdC, 5-methyl-5,6-dihydro-5-azadeoxycytidine]
EC50 (HIV-1 LAI): 10000 nM

Nc1ncn([C@@H]2O[C@H](CO)[C@@H](O)[C@H]2O)c(=O)n1 [Compound 5-aza-C, 5-Azacytidine]
EC50 [1]: 15000 nM
EC50 [2]: 10000 nM

Nc1ncn([C@H]2C[C@H](O)[C@@H](CO)O2)c(=O)n1 [Compound 5-aza-dC, 2′-deoxy-5-azacytidine]
time to 10% degradation ([3]; pH 7.0, 25° C.): 5 h
time to 10% degradation ([3]; pH 7.0, 50° C.): 0.5 h
EC50 (HIV-1 LAI): 3 nM
eradication of HIV (HIV-1 LAI; viral passage in MT-2 cells): capable of eradicating HIV in a single passage
mutation rate % (HIV-1 RT proviral DNA; 1 kb region of HIV-1 RT proviral DNA): 0.223%
MUTATIONS/NUCLEOTIDE (HIV-1 RT proviral DNA; 1 kb region of HIV-1 RT proviral DNA, 26,187 nucleotides sequenced): 61/
AΠC CΠA mutations (HIV-1 RT proviral DNA; number of mutations): 0
AΠT TΠA mutations (HIV-1 RT proviral DNA; number of mutations): 8
CΠG GΠC mutations (HIV-1 RT proviral DNA; number of mutations): 13
GΠA AΠG mutations (HIV-1 RT proviral DNA; number of mutations): 24
GΠT TΠG mutations (HIV-1 RT proviral DNA; number of mutations): 10
TΠC CΠT mutations (HIV-1 RT proviral DNA; number of mutations): 6
EC50 [4]: 10 nM
EC50 [5]: 5 nM
EC50 (HIV-1 LAI-M184V): 10 nM
IC50 at 5 days [6]: > 10000 nM

Cc1cn([C@H]2C[C@H](N=[N+]=[N-])[C@@H](CO)O2)c(=O)[nH]c1=O [AZT, zidovudine]
EC50 (HIV-1 LAI): 10 nM
EC50 [4]: 60 nM
EC50 [5]: 300 nM
EC50 (HIV-1 LAI-M184V): 10 nM

Nc1ccn([C@@H]2CS[C@H](CO)O2)c(=O)n1 [Compound 3TC, lamivudine, reference compound]
EC50 (HIV-1 LAI): 45 nM
CD4+ (HIV): 6.9%
CD4+ CD8+ (HIV): 77%
CD8+ (HIV): 4.2%
HIV-1 RNA (HIV; ** p < 0.05): 2.0** log copies/10^6 cells
Viral liter (HIV; ** p < 0.05): 0** viruses/10^6 cells
p24 (HIV; ** p < 0.05): 0** pg/10^6 cells
EC50 [5]: 330 nM
EC50 (HIV-1 LAI-M184V): > 32000 nM
